In patent US11191804B2, “Cytocidal agent” (FUJITA ACADEMY, priority 2018, dated 2021):
Where no end group is shown, it is not given here. [ ]: non-standard residue; d: D form.

How the values were obtained:
[1] = Body weight of endometriosis model mice after single intraperitoneal administration; format: in vivo, mouse; conditions: for Body Weight, 7th day: 7 days after cell transplantation, before peptide administration (baseline); for Body Weight, 7th day / Body Weight, 8th day: mean ± standard error
Method: Seven days after the A431-CNGB3-myc cells were intraperitoneally transplanted, 0.5 mL of physiological saline solution warmed to 37° C. was intraperitoneally administered to an endometriosis model mouse under isoflurane anesthesia, followed by performing massage. Immediately after the massage, a solution of the K14D-H5D peptide dissolved in physiological saline was intraperitoneally administered. The K14D-H5D peptide was administered at a dose of 0 mg/10 mL/kg (control) (n=7), 5 mg/10 mL/kg (n=8), or 10 mg/10 mL/kg (n=8) per mouse body weight
Each mouse was weighed 7 days after the A431-CNGB3-myc cells were intraperitoneally transplanted, before K14D-H5D peptide administration and before exsanguination.
The mouse group in which the dose of the K14D-H5D peptide per mouse body weight was 0 mg/10 mL/kg was represented as G1 group, the mouse group in which the dose of the K14D-H5D peptide per mouse body weight was 5 mg/10 mL/kg was represented as G2 group, and the mouse group in which the dose of the K14D-H5D peptide per mouse body weight was 10 mg/10 mL/kg was represented as G3 group. […] In the Table, “7th day” in the “Body Weight” column is the body weight 7 days after the intraperitoneal transplantation of the A431-CNGB3-myc cells, which was before the administration of the K14D-H5D peptide, and “8th day” is the body weight 24 hours after the administration of the K14D-H5D peptide.

[2] = test system: OVCAR3-Luc cells; experiment: Cytocidal activity by ATP amount (CellTiter-Glo assay kit); format: cell-based
Method: The tumor tissue to be transplanted to the mouse was prepared by culturing an ovarian cancer cell line (OVCAR3-Luc cells, transferred from another facility) into which the luciferase gene had been introduced, and used. The OVCAR3-Luc cells were cultured in a culture medium containing a RPMI medium 1640 (11875-093: manufactured by Gibco) containing 10% inactivated FBS (manufactured by Corning) at 37° C. and under a 5 vol % carbon dioxide environment. Passaging was carried out every 2-3 days.
(§1) The cytocidal activity of each peptide was evaluated by measuring the ATP amount in the cells treated with each peptide using CellTiter-Glo (registered trademark) assay kit (manufactured by Promega).
(§2) Specifically, first, the A431-CNGB3-myc cells or the OVCAR3-Luc cells after 3 to 4 passages were seeded in a 96-well plate (manufactured by Corning/Costar, Lot No. 00515003) so as to adjust the cell concentration to 1×10^4 cells/well. […] Luminescence (RLU: RELATIVE LIGHT UNITS) of each reaction solution after standing at room temperature was measured using a Synergy H1 hybrid multimode microplate reader (manufactured by BioTek). The luminescence intensity of the reaction solution is an index of the ATP amount. The smaller the luminescence intensity of the reaction solution, the smaller the ATP amount and the stronger the cytocidal activity of the administered peptide. […]

[3] = test system: A431-CNGB3-myc cells; experiment: as above; format: cell-based, human; conditions: peptide 2.34 to 300.0 μM, 24 hours, FIG. 1
Method: A transformed cell (A431-CNGB3-myc cell) obtained by introducing a gene encoding human CNGB3, in which an myc tag was fused in a C-terminal, into an A431 cell (human epithelial-like cell cancer-derived cell strain) and forcibly expressing thereof was prepared as an endometriosis model cell.
as §1
as §2, with “peptide. All trials were measured in triplicate, and the average value thereof was taken as the emission intensity (RLU) of each reaction solution.” for “peptide.”

Compound: CC(C)C[C@@H](NC(=O)[C@@H](Cc1c[nH]cn1)NC(=O)[C@@H](C)NC(=O)[C@@H](CC(C)C)NC(=O)[C@@H](Cc1c[nH]cn1)NC(=O)[C@@H](CCCCN)NC(=O)[C@@H](C)NC(=O)[C@@H](CC(C)C)NC(=O)[C@@H](CCCCN)NC(=O)[C@@H](C)NC(=O)[C@@H](CC(C)C)NC(=O)[C@@H](CCCCN)NC(=O)[C@@H](CCCCN)NC(=O)[C@@H](C)NC(=O)[C@@H](CC(C)C)NC(=O)[C@@H](CCCCN)NC(=O)[C@@H](C)NC(=O)[C@@H](CC(C)C)NC(=O)[C@H](N)CCCCN)C(=O)O [Peptide K14D-H5D, KLAKLAK-KLAKLAK-HLAHL]
- change in body weight ([1]; 5 or 10 mg/10 mL/kg single i.p., 24 hours after administration, depending on the dose): slight decrease
- Body Weight, 7th day ([1]; G2 group, 5 mg/10 mL/kg i.p.): 20.1 ± 0.4 g
- Body Weight, 8th day ([1]; G2 group, 5 mg/10 mL/kg single i.p., 24 hours after administration): 19.2 ± 0.5 g
- Body Weight, 7th day ([1]; G3 group, 10 mg/10 mL/kg i.p.): 20.0 ± 0.4 g
- Body Weight, 8th day ([1]; G3 group, 10 mg/10 mL/kg single i.p., 24 hours after administration): 17.5 ± 0.3 g

Compound: KLAKLAK-HLAHLAH-HLAHLAH-HLAH ([dK][dL][dA][dK][dL][dA][dK][dH][dL][dA][dH][dL][dA][dH][dH][dL][dA][dH][dL][dA][dH][dH][dL][dA][dH]) [Peptide K7D-H18D, reference compound]
- relative ATP amount (%) / cytocidal activity ([2]; OVCAR3-Luc cells, peptide 2.34 to 300.0 μM, 24 hours, FIG. 2): decreased in a dose-dependent manner
- relative ATP amount (%) / cytocidal activity [3]: decreased in a dose-dependent manner

Compound: KLAKLAK-KLAKLAK-HLAHL-VRRADNRPG (KLAKLAKKLAKLAKHLAHLVRRADNRPG; not fully specified (some residues); printed as KLAKLAK-KLAKLAK-HLAHL-VRRADNRPG; also: D-amino acids, positions not given here) [Peptide K14D-H5D-Z13]
- cytocidal activity compared with the K14D-H5D peptide ([2]; OVCAR3-Luc cells having no CNGB3 on the cell surface, FIG. 3): the same cytocidal activity
